Results published in US20020114786A1, “Pharmaceutical preparations comprising soybean isoflavone extracts and probiotic microogranisms” (priority 2000, published 2002).
Where two headings read alike, the source gives them in different places. Blank lines part the entries; values can stand above or below the compound they belong to.

How the values were obtained:
Lactobacillus rhamnosus = assay: metabolism of soybean extract isoflavones in microbial culture, HPLC assay; assay type: in vitro ADME
Experimental: (§1) At each of these times, a sample is removed from the microbial cultures, diluted with an equal volume of methanol and then filtered. In each case, the methanolic solution is analyzed by high performance liquid chromatography. […] In this way, the contents of the aglycone and glycosylated forms in the metabolized extract are calculated with respect to the glycosylated forms (100%) in the initial extract.

[1] = system: Streptococcus thermophilus; assay: as above; assay type: in vitro ADME
Experimental: as §1

Lactobacillus plantarum = assay: as above; assay type: in vitro ADME
Experimental: as §1

[2] = system: Propionibacterium acidipropionici; assay: as above; assay type: in vitro ADME
Experimental: as §1

Enterococcus faecium = assay: as above; assay type: in vitro ADME
Experimental: as §1

Lactobacillus brevis = assay: as above; assay type: in vitro ADME
Experimental: as §1

Lactobacillus casei = assay: as above; assay type: in vitro ADME
Experimental: as §1

[3] = system: Lactobacillus acidophilus; assay: as above; assay type: in vitro ADME
Experimental: as §1

Pediococcus acidilactici = assay: as above; assay type: in vitro ADME
Experimental: as §1

[4] = selecting isoflavone-metabolizing microorganisms; settings: microbial culture with soybean extract
Experimental: At each of these times, a sample is removed from the microbial cultures, diluted with an equal volume of methanol and then filtered. In each case, the methanolic solution is analyzed by high performance liquid chromatography. High performance liquid chromatography is used to assay daidzine, genistine, daidzein and genistein in the initial extract and in the media metabolized by the different microorganisms. In this way, the contents of the aglycone and glycosylated forms in the metabolized extract are calculated with respect to the glycosylated forms (100%) in the initial extract.

type II (β) receptors = settings: activity of estradiol set at 100; cited from earlier work
osteoclastic activity = settings: cited from earlier work
bone = settings: cited from earlier work

content in the metabolized extract with respect to the glycosylated forms (100%) in the initial extract (Lactobacillus rhamnosus): 26% | content in the metabolized extract with respect to the glycosylated forms (100%) in the initial extract [1]: 65% | content in the metabolized extract with respect to the glycosylated forms (100%) in the initial extract (Lactobacillus plantarum): 75% | content in the metabolized extract with respect to the glycosylated forms (100%) in the initial extract [2]: 33% | content in the metabolized extract with respect to the glycosylated forms (100%) in the initial extract (Enterococcus faecium; 72 h): 0.1% | content in the metabolized extract with respect to the glycosylated forms (100%) in the initial extract (Lactobacillus brevis): 16% | content in the metabolized extract with respect to the glycosylated forms (100%) in the initial extract (Lactobacillus casei): 80% | content in the metabolized extract with respect to the glycosylated forms (100%) in the initial extract [3]: 16% | content in the metabolized extract with respect to the glycosylated forms (100%) in the initial extract (Pediococcus acidilactici): 77%
Compound: O=c1c(-c2ccc(O)cc2)coc2cc(O[C@@H]3O[C@H](CO)[C@@H](O)[C@H](O)[C@H]3O)ccc12 [Daidzine, daidzine]

Compound: Lactobacillus acidophilus
ranking of strains by isoflavone-metabolizing activity [4]: the most active strains

Compound: O=c1c(-c2ccc(O)cc2)coc2cc(O)ccc12 [Daidzein, daidzein]
estrogenic activity (type II (β) receptors): 0.013

content in the metabolized extract with respect to the glycosylated forms (100%) in the initial extract (Lactobacillus rhamnosus; Lactobacillus rhamnosus culture, time not given): 85% | content in the metabolized extract with respect to the glycosylated forms (100%) in the initial extract ([1]; Streptococcus thermophilus culture, time not given): 25% | content in the metabolized extract with respect to the glycosylated forms (100%) in the initial extract (Lactobacillus plantarum; Lactobacillus plantarum culture, time not given): 44% | content in the metabolized extract with respect to the glycosylated forms (100%) in the initial extract ([2]; Propionibacterium acidipropionici culture, time not given): 72% | content in the metabolized extract with respect to the glycosylated forms (100%) in the initial extract (Enterococcus faecium; Enterococcus faecium culture, cultured 24, 48 and 72 hours, time not given): 80% | content in the metabolized extract with respect to the glycosylated forms (100%) in the initial extract (Lactobacillus brevis; Lactobacillus brevis culture, time not given): 81% | content in the metabolized extract with respect to the glycosylated forms (100%) in the initial extract (Lactobacillus casei; Lactobacillus casei culture, time not given): 13% | content in the metabolized extract with respect to the glycosylated forms (100%) in the initial extract ([3]; Lactobacillus acidophilus culture, time not given): 83% | content in the metabolized extract with respect to the glycosylated forms (100%) in the initial extract (Pediococcus acidilactici; Pediococcus acidilactici culture, time not given): 30%
Compound: O=c1c(-c2ccc(O)cc2)coc2cc(O)cc(O)c12 [Genistein, genistein]
estrogenic activity (type II (β) receptors): 0.084 | osteoclastic activity (osteoclastic activity): inhibits osteoclastic activity

Compound: Oc1ccc([C@H]2COc3cc(O)ccc3C2)cc1 [equol, reference compound]
estrogenic activity (type II (β) receptors): 0.61

Compound: estradiol [reference compound]
estrogenic activity (type II (β) receptors): 100

Compound: CC(C)Oc1ccc2c(=O)c(-c3ccccc3)coc2c1 [ipriflavone]
bone gain (bone; 500 to 600 mg per day, 40 menopausal women suffering from osteoporosis): bone gain at the level of L1-L5, with a return to normal in 12 months | bone losses (bone; women being treated with LHRH agonists): possible to avoid bone losses

content in the metabolized extract with respect to the glycosylated forms (100%) in the initial extract (Lactobacillus rhamnosus; Lactobacillus rhamnosus): 5% | content in the metabolized extract with respect to the glycosylated forms (100%) in the initial extract ([1]; Streptococcus thermophilus): 73% | content in the metabolized extract with respect to the glycosylated forms (100%) in the initial extract (Lactobacillus plantarum; Lactobacillus plantarum): 53% | content in the metabolized extract with respect to the glycosylated forms (100%) in the initial extract ([2]; Propionibacterium acidipropionici): 12% | content in the metabolized extract with respect to the glycosylated forms (100%) in the initial extract (Enterococcus faecium; Enterococcus faecium, 72 h): 5.5% | content in the metabolized extract with respect to the glycosylated forms (100%) in the initial extract (Lactobacillus brevis; Lactobacillus brevis): 2% | content in the metabolized extract with respect to the glycosylated forms (100%) in the initial extract (Lactobacillus casei; Lactobacillus casei): 85% | content in the metabolized extract with respect to the glycosylated forms (100%) in the initial extract ([3]; Lactobacillus acidophilus): 6.5% | content in the metabolized extract with respect to the glycosylated forms (100%) in the initial extract (Pediococcus acidilactici; Pediococcus acidilactici): 63%
Compound: O=c1c(-c2ccc(O)cc2)coc2cc(O[C@@H]3O[C@H](CO)[C@@H](O)[C@H](O)[C@H]3O)cc(O)c12 [Genistine, genistine]
